# US9855268B2, “Triazolo[4,5-d]pyrimidine derivatives” (Merck Patent GmbH, priority 2013, dated 2018)
# Counter-ions that a name gives are not always drawn.
# Target: GCN2 (Homo sapiens, UniProt Q9P2K8)
# Assay: GCN2 enzyme assay (TR-FRET Lanthascreen, GFP-eIF2alpha phosphorylation)
# Type: biochemical
# Conditions: 10 μM ATP, 80 nM GFP-eIF2a, 30 nM GCN2
# Excerpt: GCN2: Assay Principle & Conditions
# This assay can quantificate the activity of the serin kinase GCN2 (general control non-derepressible-2).
# This kinase is involved in the stress metabolism of cells. It is activated upon starvation (amino acid depletion). Its natural substrate is eIF2a (eukaryotic initiation factor 2 alpha subunit), a translation factor, which gets activated (phosphorylated) by GCN2 in case of an amino acid bottleneck in the cells. This in turn leads to a halt of the protein synthesis. Inhibition of GCN2 results in stopping this mechanism: The cell can not stop protein production upon “starvation” stress.
# The assay is run in two steps: the enzymatic reaction and the detection step. In the first step GCN2 is incubated with 10 μM ATP and 80 nM of the GFP-labelled substrate eIF2alpha at room temperature.
# The enzymatic reaction is stopped by addition of EDTA. The amount of phosphorylated eIF2alpha is determined by TR-FRET (Lanthascreen): A complex is formed consisting of antibody and GFP labelled phospho-eIF2a, which allows a FRET upon exitation at 340 nm.
# Final Concentrations in the Enzymatic Reaction
# Chain of GCN2 (Q9P2K8 whole entry, species assumed): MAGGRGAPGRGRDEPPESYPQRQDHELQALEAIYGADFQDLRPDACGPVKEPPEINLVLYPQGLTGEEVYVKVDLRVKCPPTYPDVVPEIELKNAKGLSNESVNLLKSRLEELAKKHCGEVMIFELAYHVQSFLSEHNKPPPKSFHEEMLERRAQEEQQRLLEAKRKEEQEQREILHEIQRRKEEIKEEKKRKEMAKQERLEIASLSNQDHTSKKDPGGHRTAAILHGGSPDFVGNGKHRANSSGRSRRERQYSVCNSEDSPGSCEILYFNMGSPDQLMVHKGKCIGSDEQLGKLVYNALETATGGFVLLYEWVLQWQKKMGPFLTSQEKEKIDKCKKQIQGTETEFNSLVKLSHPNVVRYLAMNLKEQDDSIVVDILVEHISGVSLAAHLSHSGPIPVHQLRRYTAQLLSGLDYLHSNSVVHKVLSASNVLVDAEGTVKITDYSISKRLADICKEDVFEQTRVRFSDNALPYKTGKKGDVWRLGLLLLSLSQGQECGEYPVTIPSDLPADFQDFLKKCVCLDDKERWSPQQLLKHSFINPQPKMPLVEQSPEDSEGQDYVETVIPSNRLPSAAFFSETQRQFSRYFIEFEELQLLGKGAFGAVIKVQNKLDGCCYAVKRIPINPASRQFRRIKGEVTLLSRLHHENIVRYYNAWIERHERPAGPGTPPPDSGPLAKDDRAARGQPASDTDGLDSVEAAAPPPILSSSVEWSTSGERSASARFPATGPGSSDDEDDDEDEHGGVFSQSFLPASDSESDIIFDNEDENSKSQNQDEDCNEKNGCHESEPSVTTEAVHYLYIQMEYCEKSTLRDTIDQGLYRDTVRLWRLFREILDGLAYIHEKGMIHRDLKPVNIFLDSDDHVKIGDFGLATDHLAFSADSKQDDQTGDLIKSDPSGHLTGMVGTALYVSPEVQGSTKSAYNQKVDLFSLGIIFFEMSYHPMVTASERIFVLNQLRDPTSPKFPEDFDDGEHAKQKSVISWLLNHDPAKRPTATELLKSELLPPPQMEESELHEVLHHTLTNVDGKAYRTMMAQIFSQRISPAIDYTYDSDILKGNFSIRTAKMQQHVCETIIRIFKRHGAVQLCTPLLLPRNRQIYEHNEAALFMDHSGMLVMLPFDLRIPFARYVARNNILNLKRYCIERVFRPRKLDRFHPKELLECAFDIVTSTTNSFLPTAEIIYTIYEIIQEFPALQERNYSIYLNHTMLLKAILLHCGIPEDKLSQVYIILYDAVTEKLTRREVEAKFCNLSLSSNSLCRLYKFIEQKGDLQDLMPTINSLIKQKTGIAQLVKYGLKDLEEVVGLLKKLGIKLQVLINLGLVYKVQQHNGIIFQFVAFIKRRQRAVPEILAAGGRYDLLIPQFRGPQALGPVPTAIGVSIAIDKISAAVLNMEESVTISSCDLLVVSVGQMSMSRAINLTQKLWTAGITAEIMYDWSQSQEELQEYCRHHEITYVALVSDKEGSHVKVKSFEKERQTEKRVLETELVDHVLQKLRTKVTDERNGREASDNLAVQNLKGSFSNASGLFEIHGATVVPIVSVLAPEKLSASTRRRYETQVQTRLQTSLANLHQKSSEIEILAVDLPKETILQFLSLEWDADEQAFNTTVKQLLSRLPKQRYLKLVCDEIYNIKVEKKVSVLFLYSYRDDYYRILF
row,Compound,IC50
1,"COc1ccc(-n2nnc3cnc(N[C@H]4C[C@@H](NC(=O)OC(C)(C)C)C4)nc32)cc1 [A30, {cis-3-[3-(4-methoxy-phenyl)-3H-[1,2,3]triazolo[4,5-d]pyrimidin-5-ylamino]-cyclobutyl}-carbamic acid tert-butyl ester]",< 1000 nM
2,"COc1ccc(-n2nnc3cnc(NC4CCCNC4)nc32)cc1 (centres unmarked) [A43, [3-(4-methoxy-phenyl)-3H-[1,2,3]triazolo[4,5-d]pyrimidin-5-yl]-piperidin-3-yl-amine hydrochloride]",1000 to 5000 nM
3,"COc1ccc(-n2nnc3cnc(NC4CCN(C(=O)OC(C)(C)C)CC4)nc32)cc1 [A34, 4-[3-(4-methoxy-phenyl)-3H-[1,2,3]triazolo[4,5-d]pyrimidin-5-ylamino]-piperidine-1-carboxylic acid tert-butyl ester]",< 1000 nM
4,"Nc1cnn(CCCNc2ncc3nnn(-c4ccc(OCCC(=O)O)cc4)c3n2)c1 [A47, 3-(4-{5-[3-(4-amino-pyrazol-1-yl)-propylamino]-[1,2,3]triazolo[4,5-d]pyrimidin-3-yl}-phenoxy)-propionic acid]",< 1000 nM
5,"N[C@H]1CC[C@H](Nc2ncc3nnn(-c4ccc(I)cc4)c3n2)CC1 [A53, N-[3-(4-iodo-phenyl)-3H-[1,2,3]triazolo[4,5-d]pyrimidin-5-yl]-cyclohexane-1,4-diamine]",< 1000 nM
6,"COc1ccc(-n2nnc3cnc(NCCCN4CCCC4)nc32)cc1 [A61, [3-(4-methoxy-phenyl)-3H-[1,2,3]triazolo[4,5-d]pyrimidin-5-yl]-(3-pyrrolidin-1-yl-propyl)-amine]",5000 to 10000 nM
7,"COc1ccc(-n2nnc3cnc(NC4CCc5[nH]ncc5C4)nc32)cc1 (centres unmarked) [A23, [3-(4-methoxy-phenyl)-3H-[1,2,3]triazolo[4,5-d]pyrimidin-5-yl]-(4,5,6,7-tetrahydro-1H-indazol-5-yl)-amine]",< 1000 nM
8,"O=C(O)CCOc1ccc(-n2nnc3cnc(NCCCn4cc([N+](=O)[O-])cn4)nc32)cc1 [A46, 3-(4-{5-[3-(4-nitro-pyrazol-1-yl)-propylamino]-[1,2,3]triazolo[4,5-d]-pyrimidin-3-yl}-phenoxy)-propionic acid]",< 1000 nM
9,"COc1ccc(-n2nnc3cnc(N[C@H]4CC[C@@H](O)CC4)nc32)cc1 [A26, cis-4-[3-(4-methoxy-phenyl)-3H-[1,2,3]triazolo[4,5-d]pyrimidin-5-ylamino]-cyclohexanol]",< 1000 nM
10,"COc1ccc(-n2nnc3cnc(N[C@H]4C[C@H](O)C4)nc32)cc1 [A24, trans-3-[3-(4-methoxy-phenyl)-3H-[1,2,3]triazolo[4,5-d]pyrimidin-5-ylamino]-cyclobutanol]",< 1000 nM
11,"COc1ccc(-n2nnc3cnc(N[C@H]4CC[C@H](O)CC4)nc32)cc1 [A6, trans-4-[3-(4-methoxy-phenyl)-3H-[1,2,3]triazolo[4,5-d]pyrimidin-5-ylamino]-cyclohexanol]",< 1000 nM

# Other lines, results leading:
row,IC50,Compound
1,< 1000 nM,"COc1ccc(-n2nnc3cnc(N[C@@H]4CCN(C(=O)Cn5cccn5)C4)nc32)cc1 [A90, 1-{(R)-3-[3-(4-methoxy-phenyl)-3H-[1,2,3]triazolo[4,5-d]pyrimidin-5-ylamino]-pyrrolidin-1-yl}-2-pyrazol-1-yl-ethanone]"
2,< 1000 nM,"N[C@H]1CC[C@H](Nc2ncc3nnn(-c4ccc(F)cc4)c3n2)CC1 [A75, N-[3-(4-fluoro-phenyl)-3H-[1,2,3]triazolo[4,5-d]pyrimidin-5-yl]-(trans)-cyclohexane-1,4-diamine]"
3,< 1000 nM,"COc1ccc(-n2nnc3cnc(N[C@@H]4CC[C@@H](N5CCCC5=O)C4)nc32)cc1 [A291, 1-{(1R,3R)-3-[3-(4-methoxy-phenyl)-3H-[1,2,3]triazolo[4,5-d]pyrimidin-5-ylamino]-cyclopentyl}-pyrrolidin-2-one]"
4,1000 to 5000 nM,"COc1ccc(-n2nnc3cnc(N[C@@H]4CC[C@](O)(C(F)(F)F)C4)nc32)cc1 (relative stereo) [A67, trans-3-[3-(4-methoxy-phenyl)-3H-[1,2,3]triazolo[4,5-d]pyrimidin-5-ylamino]-1-trifluoromethyl-cyclopentanol]"
5,< 1000 nM,"COc1ccc(-n2nnc3cnc(NCCCOCCCN)nc32)cc1 [A76, [3-(3-amino-propoxy)-propyl]-[3-(4-methoxy-phenyl)-3H-[1,2,3]triazolo[4,5-d]pyrimidin-5-yl]-amine formate]"
6,1000 to 5000 nM,"COc1ccc(-n2nnc3cnc(N[C@H]4CC[C@@H](NC(=O)OCc5ccccc5)C4)nc32)cc1 [A89, {(1R,3S)-3-[3-(4-methoxy-phenyl)-3H-[1,2,3]triazolo[4,5-d]pyrimidin-5-ylamino]-cyclopentyl}-carbamic acid benzyl ester]"
7,1000 to 5000 nM,"COc1ccc(-n2nnc3cnc(N[C@H]4CCN(C(=O)CCN(C)C)C4)nc32)cc1 [A92, 3-dimethylamino-1-{(S)-3-[3-(4-methoxy-phenyl)-3H-[1,2,3]triazolo[4,5-d]-pyrimidin-5-ylamino]-pyrrolidin-1-yl}-propan-1-one formate]"
8,< 1000 nM,"COc1c(F)cc(-n2nnc3cnc(N[C@@H]4CC[C@@H](C(N)=O)C4)nc32)cc1F [A163, (1R,3R)-3-[3-(3,5-difluoro-4-methoxy-phenyl)-3H-[1,2,3]triazolo[4,5-d]pyrimidin-5-ylamino]-cyclopentanecarboxylic acid amide]"
9,< 1000 nM,"COc1ccc(-n2nnc3cnc(N[C@@H]4CC[C@H](CNC(=O)OC(C)(C)C)C4)nc32)cc1 (relative stereo) [A117, {(cis)-3-[3-(4-methoxy-phenyl)-3H-[1,2,3]triazolo[4,5-d]pyrimidin-5-ylamino]-cyclopentylmethyl}-carbamic acid tert-butyl ester]"
10,< 1000 nM,"COC(=O)[C@H]1CC[C@H](Nc2ncc3nnn(-c4ccc(OC)cc4)c3n2)C1 [A110, (1S,3S)-3-[3-(4-methoxy-phenyl)-3H-[1,2,3]triazolo[4,5-d]pyrimidin-5-ylamino]-cyclopentanecarboxylic acid methyl ester]"
11,< 1000 nM,"NC(=O)[C@@H]1CC[C@@H](Nc2ncc3nnn(-c4ccc(N5CCOCC5=O)c(F)c4)c3n2)C1 [A154, (1R,3R)-3-{3-[3-fluoro-4-(3-oxo-morpholin-4-yl)-phenyl]-3H-[1,2,3]triazolo[4,5-d]pyrimidin-5-ylamino}-cyclopentanecarboxylic acid amide]"
12,1000 to 5000 nM,"COc1ccc(-n2nnc3cnc(NCCc4ccccc4)nc32)cc1 [B10, [3-(4-methoxy-phenyl)-3H-[1,2,3]triazolo[4,5-d]pyrimidin-5-yl]-phenethyl-amine]"
13,< 1000 nM,"COc1ccc(-n2nnc3cnc(N[C@H]4CC[C@@H](N(C)C)C4)nc32)cc1 (relative stereo) [A108, (cis)-N-[3-(4-methoxy-phenyl)-3H-[1,2,3]triazolo[4,5-d]pyrimidin-5-yl]-N′,N′-dimethyl-cyclopentane-1,3-diamine]"
14,< 1000 nM,"COc1ccc(-n2nnc3cnc(N[C@H]4CC[C@H](S(C)(=O)=O)C4)nc32)cc1 (relative stereo) [A263, ((trans)-3-methanesulfonyl-cyclopentyl)-[3-(4-methoxy-phenyl)-3H-[1,2,3]triazolo[4,5-d]pyrimidin-5-yl]-amine]"
15,< 1000 nM,"COC(=O)[C@@H]1CC[C@@H](Nc2ncc3nnn(-c4ccc(OC)cc4)c3n2)C1 [A113, (1R,3R)-3-[3-(4-methoxy-phenyl)-3H-[1,2,3]triazolo[4,5-d]pyrimidin-5-ylamino]-cyclopentanecarboxylic acid methyl ester]"
